# Assays:
# Type in all cases: functional
# [1] = system: SK-OV-3; test: Growth inhibition of human SKOV3 cells assessed as cell growth at 10^-4 M incubated for 48 hrs by sulforhodamine B assay relative to control; conditions: SK-OV-3, 48 h, read-out: Activity
# [2] = system: SNB-75; test: Growth inhibition of human SNB75 cells assessed as cell growth at 10^-6 M incubated for 48 hrs by sulforhodamine B assay relative to control; conditions: SNB-75, 48 h, read-out: Activity
# [3] = system: BT-549; test: Growth inhibition of human BT549 cells assessed as cell growth at 10^-5 M incubated for 48 hrs by sulforhodamine B assay relative to control; conditions: BT-549, 48 h, read-out: Activity
# [4] = system: ACHN; test: Growth inhibition of human ACHN cells assessed as cell growth at 10^-5 M incubated for 48 hrs by sulforhodamine B assay relative to control; conditions: read-out: Activity
# [5] = system: SF-295; test: Growth inhibition of human SF295 cells assessed as cell growth at 10^-8 M incubated for 48 hrs by sulforhodamine B assay relative to control; conditions: SF-295, 48 h, read-out: Activity
# [6] = system: CCRF-CEM; test: Growth inhibition of human CCRF-CEM cells assessed as cell growth at 10^-8 M incubated for 48 hrs by sulforhodamine B assay relative to control; conditions: read-out: Activity
# [7] = system: 786-0; test: Growth inhibition of human 786-0 cells assessed as cell growth at 10^-8 M incubated for 48 hrs by sulforhodamine B assay relative to control; conditions: 786-0, 48 h, read-out: Activity
# [8] = system: SN12C; test: Growth inhibition of human SN12C cells assessed as cell growth at 10^-4 M incubated for 48 hrs by sulforhodamine B assay relative to control; conditions: read-out: Activity
# [9] = system: BT-549; test: Cytotoxicity against human BT549 cells after 48 hrs by SRB assay; conditions: BT-549, 48 h; for CC50: read-out: pLC50 (the source's name) (converted)
# [10] = system: PC-3; test: Growth inhibition of human PC3 cells assessed as cell growth at 10^-5 M incubated for 48 hrs by sulforhodamine B assay relative to control; conditions: PC-3, 48 h, read-out: Activity
# [11] = system: Hs-578T; test: Cytotoxicity against human Hs 578T cells after 48 hrs by SRB assay
# [12] = system: HT-29; test: Cytotoxicity against human HT-29 cells after 48 hrs by SRB assay; conditions: HT-29, 48 h
# [13] = system: MDA-MB-468; test: Growth inhibition of human MDA-MB-468 cells assessed as cell growth at 10^-8 M incubated for 48 hrs by sulforhodamine B assay relative to control; conditions: MDA-MB-468, 48 h, read-out: Activity
# [14] = system: RXF 393; test: Growth inhibition of human RXF393 cells assessed as cell growth at 10^-7 M incubated for 48 hrs by sulforhodamine B assay relative to control; conditions: RXF 393, 48 h, read-out: Activity
# [15] = system: MCF7; test: Growth inhibition of human MCF7 cells assessed as cell growth at 10^-6 M incubated for 48 hrs by sulforhodamine B assay relative to control; conditions: MCF7, 48 h, read-out: Activity
# [16] = system: NCI/ADR-RES; test: Growth inhibition of human NCI/ADR-RES cells assessed as cell growth at 10^-5 M incubated for 48 hrs by sulforhodamine B assay relative to control; conditions: read-out: Activity
# [17] = system: CCRF-CEM; test: Cytotoxicity against human CCRF-CEM cells after 48 hrs by SRB assay
# [18] = system: UACC-62; test: Growth inhibition of human UACC62 cells assessed as cell growth at 10^-6 M incubated for 48 hrs by sulforhodamine B assay relative to control; conditions: UACC-62, 48 h, read-out: Activity
# [19] = system: Malme-3M; test: Growth inhibition of human MALME-3M cells assessed as cell growth at 10^-7 M incubated for 48 hrs by sulforhodamine B assay relative to control; conditions: read-out: Activity
# [20] = system: MCF7; test: Growth inhibition of human MCF7 cells assessed as cell growth at 10^-8 M incubated for 48 hrs by sulforhodamine B assay relative to control; conditions: MCF7, 48 h, read-out: Activity
# [21] = system: HCT-15; test: Cytotoxicity against human HCT15 cells after 48 hrs by SRB assay; conditions: HCT-15, 48 h
# [22] = system: M14; test: Growth inhibition of human M14 cells assessed as cell growth at 10^-5 M incubated for 48 hrs by sulforhodamine B assay relative to control; conditions: M14, 48 h, read-out: Activity
# [23] = system: COLO 205; test: Cytotoxicity against human COLO205 cells after 48 hrs by SRB assay; conditions: COLO 205, 48 h
# [24] = system: OVCAR-8; test: Cytotoxicity against human OVCAR8 cells after 48 hrs by SRB assay; conditions: OVCAR-8, 48 h; for CC50: read-out: pLC50 (the source's name) (converted)
# [25] = system: OVCAR-5; test: Growth inhibition of human OVCAR5 cells assessed as cell growth at 10^-7 M incubated for 48 hrs by sulforhodamine B assay relative to control; conditions: OVCAR-5, 48 h, read-out: Activity
# [26] = system: NCI-H460; test: Growth inhibition of human NCI-H460 cells assessed as cell growth at 10^-6 M incubated for 48 hrs by sulforhodamine B assay relative to control; conditions: NCI-H460, 48 h, read-out: Activity
# [27] = system: DU-145; test: Growth inhibition of human DU145 cells assessed as cell growth at 10^-5 M incubated for 48 hrs by sulforhodamine B assay relative to control; conditions: DU-145, 48 h, read-out: Activity
# [28] = system: HCT-15; test: Growth inhibition of human HCT15 cells assessed as cell growth at 10^-7 M incubated for 48 hrs by sulforhodamine B assay relative to control; conditions: HCT-15, 48 h, read-out: Activity
# [29] = system: PC-3; test: Growth inhibition of human PC3 cells assessed as cell growth at 10^-6 M incubated for 48 hrs by sulforhodamine B assay relative to control; conditions: PC-3, 48 h, read-out: Activity
# [30] = system: BT-549; test: Growth inhibition of human BT549 cells assessed as cell growth at 10^-8 M incubated for 48 hrs by sulforhodamine B assay relative to control; conditions: BT-549, 48 h, read-out: Activity
# [31] = system: MDA-MB-468; test: Growth inhibition of human MDA-MB-468 cells assessed as cell growth at 10^-7 M incubated for 48 hrs by sulforhodamine B assay relative to control; conditions: MDA-MB-468, 48 h, read-out: Activity
# [32] = system: COLO 205; test: Growth inhibition of human COLO205 cells assessed as cell growth at 10^-8 M incubated for 48 hrs by sulforhodamine B assay relative to control; conditions: COLO 205, 48 h, read-out: Activity
# [33] = system: PC-3; test: Cytotoxicity against human PC3 cells after 48 hrs by SRB assay; conditions: PC-3, 48 h
# [34] = read-out: pLC50 (the source's name) (converted)
# [35] = read-out: LC50 (the source's name)
structure (smiles),measurement,setting,value
C#C[C@@]1(O)[C@@H](CO)O[C@@H](n2ccc3c(N)ncnc32)[C@@H]1O,growth at 100 µM,[1],-11%
same,growth at 1 µM,[2],90%
same,growth at 10 µM,[3],-63%
same,growth at 10 µM,[4],-18%
same,growth at 0.01 µM,[5],89%
same,growth at 0.01 µM,[6],102%
same,growth at 0.01 µM,[7],91%
same,growth at 100 µM,[8],-64%
same,TGI,[9]; read-out: TGI,3.64 µM
same,GI50,[9]; read-out: pGI50 (converted),1.62 µM
same,CC50,[9],8.13 µM
same,TGI,[9]; read-out: pTGI (converted),3.63 µM
same,growth at 10 µM,[10],-37%
same,TGI,[11]; read-out: TGI,> 100 µM
same,GI50,[11]; read-out: pGI50 (converted),4.68 µM
same,CC50,[11]; [34],> 100 µM
same,TGI,[11]; read-out: pTGI,> 100 µM
same,CC50,[12]; [35],> 100 µM
same,TGI,[12]; read-out: TGI,10 µM
same,GI50,[12]; read-out: pGI50 (converted),0.977 µM
same,TGI,[12]; read-out: pTGI (converted),10 µM
same,growth at 0.01 µM,[13],93%
same,growth at 0.1 µM,[14],111%
same,growth at 1 µM,[15],13%
same,growth at 10 µM,[16],-7%
same,CC50,[17]; [35],> 100 µM
same,TGI,[17]; read-out: TGI,> 100 µM
same,GI50,[17]; read-out: pGI50 (converted),2.29 µM
same,TGI,[17]; read-out: pTGI,> 100 µM
same,growth at 1 µM,[18],82%
same,growth at 0.1 µM,[19],97%
same,growth at 0.01 µM,[20],83%
same,TGI,[21]; read-out: TGI,4.62 µM
same,GI50,[21]; read-out: pGI50 (converted),0.891 µM
same,CC50,[21]; [34],> 100 µM
same,TGI,[21]; read-out: pTGI (converted),4.57 µM
same,growth at 10 µM,[22],-80%
same,TGI,[23]; read-out: TGI,2.67 µM
same,GI50,[23]; read-out: pGI50 (converted),0.676 µM
same,CC50,[23]; [34],8.91 µM
same,TGI,[23]; read-out: pTGI (converted),2.69 µM
same,TGI,[24]; read-out: TGI,4.11 µM
same,GI50,[24]; read-out: pGI50 (converted),1.02 µM
same,CC50,[24],34.7 µM
same,TGI,[24]; read-out: pTGI (converted),4.07 µM
same,growth at 0.1 µM,[25],106%
same,growth at 1 µM,[26],30%
same,growth at 10 µM,[27],-8%
same,growth at 0.1 µM,[28],93%
same,growth at 1 µM,[29],45%
same,growth at 0.01 µM,[30],89%
same,growth at 0.1 µM,[31],97%
same,growth at 0.01 µM,[32],95%
same,TGI,[33]; read-out: TGI,3.54 µM
same,GI50,[33]; read-out: pGI50 (converted),0.813 µM
same,CC50,[33]; [34],33.1 µM
same,TGI,[33]; read-out: pTGI (converted),3.55 µM
C#C[C@@]1(O)[C@@H](CO)O[C@@H](n2cc(I)c3c(N)ncnc32)[C@@H]1O,growth at 100 µM,[1],-9%
same,growth at 1 µM,[2],27 to 39%
same,growth at 10 µM,[4],5%
same,growth at 0.01 µM,[5],90%
same,growth at 0.01 µM,[6],97%
same,growth at 0.01 µM,[7],87 to 98%
same,growth at 100 µM,[8],6%
same,GI50,[9]; read-out: GI50,0.175 to 0.384 µM
same,TGI,[9]; read-out: TGI,3.26 to 4.94 µM
same,CC50,[9],> 100 µM
same,growth at 10 µM,[10],2%
same,GI50,[11]; read-out: GI50,0.55 to 1.12 µM
same,CC50,[11]; [35],> 100 µM
same,TGI,[11]; read-out: TGI,7.12 to 8.62 µM
same,GI50,[12]; read-out: GI50,0.0142 to 0.0397 µM
same,TGI,[12]; read-out: TGI,3.3 to 6.84 µM
same,CC50,[12]; [34],> 100 µM
same,growth at 0.01 µM,[13],81 to 93%
same,growth at 0.1 µM,[14],82 to 90%
same,growth at 1 µM,[15],1 to 6%
same,growth at 10 µM,[16],-4%
same,GI50,[17]; read-out: GI50,0.249 to 0.295 µM
same,TGI,[17]; read-out: TGI,> 100 µM
same,CC50,[17]; [34],> 100 µM
same,TGI,[17]; read-out: pTGI,> 100 µM
same,growth at 1 µM,[18],40 to 43%
same,growth at 0.1 µM,[19],78 to 99%
same,growth at 0.01 µM,[20],35 to 54%
same,GI50,[21]; read-out: GI50,0.107 to 0.175 µM
same,CC50,[21]; [35],> 100 µM
same,TGI,[21]; read-out: TGI,> 100 µM
same,TGI,[21]; read-out: pTGI (converted),> 100 µM
same,GI50,[23]; read-out: GI50,0.0448 to 0.17 µM
same,CC50,[23]; [35],4.78 to 6.74 µM
same,TGI,[23]; read-out: TGI,0.393 to 1.27 µM
same,GI50,[24]; read-out: GI50,0.0423 to 0.049 µM
same,TGI,[24]; read-out: TGI,1.46 to 100 µM
same,CC50,[24],> 100 µM
same,growth at 0.1 µM,[25],67 to 75%
same,growth at 1 µM,[26],6 to 9%
same,growth at 10 µM,[27],8 to 11%
same,growth at 0.1 µM,[28],51 to 60%
same,growth at 1 µM,[29],13 to 14%
same,growth at 0.01 µM,[30],86 to 96%
same,growth at 0.1 µM,[31],65 to 68%
same,growth at 0.01 µM,[32],79 to 98%
same,GI50,[33]; read-out: GI50,0.0663 to 0.0861 µM
same,CC50,[33]; [35],> 100 µM
same,TGI,[33]; read-out: TGI,14.5 to 100 µM
